Source: publication PMC11224556, “Next-generation of BBQ analogues that selectively target breast cancer” (Frontiers in Chemistry, 2024)

Assays:
T47D breast cancer cells = tested on: T47D breast cancer cells; design: method as in Gilbert et al., 2020; conditions: Breast (ER/PR), MTT, 72 h, ref Gilbert et al., 2020; cited from earlier work
[1] = tested on: BT474 breast cancer cells; design: method as in Gilbert et al., 2020; conditions: BT474, Breast (ER/PR/HER2); MTT, 72 h; ref Gilbert et al., 2020; cited from earlier work
A2780 (ovary) cells = tested on: A2780 (ovary) cells; design: method as in Gilbert et al., 2020; conditions: MTT, 72 h, ref Gilbert et al., 2020; cited from earlier work
Du145 (prostate) cells = tested on: Du145 (prostate) cells; design: method as in Gilbert et al., 2020; conditions: MTT, 72 h, ref Gilbert et al., 2020; cited from earlier work
[2] = tested on: A431 (vulva/skin, ER+) cells; design: method as in Gilbert et al., 2020; conditions: MTT, 72 h, ref Gilbert et al., 2020; cited from earlier work
[3] = tested on: SKBR3 breast cancer cells; design: method as in Gilbert et al., 2020; conditions: SKBR3, Breast (HER2); MTT, 72 h; ref Gilbert et al., 2020; cited from earlier work
H460 (lung, ER+) cells = tested on: H460 (lung, ER+) cells; design: method as in Gilbert et al., 2020; conditions: MTT, 72 h, ref Gilbert et al., 2020; cited from earlier work
[4] = tested on: broad panel of cancer cell lines and non-cancer breast cell line MCF10A; conditions: cited from earlier work
[5] = tested on: MCF-7 breast cancer cells; design: method as in Gilbert et al., 2020; conditions: MCF-7, Breast (ER); MTT, 72 h; ref Gilbert et al., 2020; cited from earlier work
BE2-C (neuronal) cells = tested on: BE2-C (neuronal) cells; design: method as in Gilbert et al., 2020; conditions: Neuron, MTT, 72 h, ref Gilbert et al., 2020; cited from earlier work
CYP1A1 mRNA = experiment: Gene expression analysis (qPCR) in MDA-MB-468 cells; type: cell-based, human; conditions: 6 h
Method: (§1) These analogues were specifically chosen because they were synthesised without the production of regioisomers, their structural differences are small while their biological differences are large, c.f. […] Neither analogue altered the expression of SULT1A1 (Figure 4D).
(§2) Gene expression was examined in MDA-MB-468 cells following 6 h treatment. Total RNA was extracted using the RNeasy Mini Kit (Qiagen) according to the manufacturer’s instructions. One µg of RNA was reverse transcribed using the QuanitTect Reverse Transcription Kit (Qiagen) according to the manufacturer’s instructions. Rotor-Gene SYBR Green PCR Kit (Qiagen) was used to perform qPCR on a Rotor-Gene 3,000 Thermo-Cycler Instrument using β2-microglobulin as a housekeeping gene (Qiagen). The primer sequences were purchased from Qiagen as follows: AhR (QT02422938), CYP1A1 (QT00012341), CYP1B1 (QT00209496), SULT1A1 (QT01665489), and β2M (QT00088935). HotStar Taq activation (95 °C for 5 min) was followed by 40 cycles of denaturation (95 °C for 5 s), and annealing/extension (60 °C for 10 s). The comparative Ct value method was used for data analysis. Results are presented as the mean ± standard error of the mean (SEM) of analysis conducted in duplicate and repeated on two separate occasions. Significant test results were determined using T-test analysis at p < 0.01 with a two tail distribution.

AhR mRNA = experiment: as above; type: cell-based, human; conditions: 1 μM and the GI50 value, 6 h
Method: as §1, §2

CYP1B1 mRNA = experiment: as above; type: cell-based, human; conditions: 1.0 μM, 6 h
Method: as §1, §2

[6] = tested on: MCF10A normal breast cells; experiment: MTT growth inhibition with CYP1 (αNF) or SULT1A1 (quercetin) inhibitor; type: cell-based, human; conditions: 3 and 5 at 0.1 µM, αNF 10 µM, quercetin 5 µM, 72 h (Supp Figure 1)
Method: (§3) This analysis confirms that both CYP1 and SULT1A1, activity is needed to induce the growth inhibitory effect of the BBQ analogue.
(§4) Cells in logarithmic growth were transferred to 96-well plates. Cytotoxicity was determined by plating cells in duplicate in 100 μL medium at a density of 2,500–4,000 cells/well in 96 well plates. On day 0, (24 h after plating) when the cells were in logarithmic growth 100 μL medium with or without the test agent was added to each well. After 72 h drug exposure growth inhibitory effects were evaluated using the MTT (3-[4,5-dimethylthiazol-2-yl]-2,5-diphenyltetrazolium bromide) assay with absorbance read at 540 nm. An eight-point dose response curve was produced, using MS Excel software. From these dose-response curves, the GI50 value was calculated, representing the drug concentration at which cell growth is 50% inhibited based on the difference between the optical density values on day 0 and those at the end of drug exposure ([Bradshaw et al., 2008]; [Zhang et al., 2009]). Each data point was conducted in duplicate and the mean ± S.E.M. calculated from four to five replicates (n = 4 or 5), which were performed on separate occasions and separate cell line passages. Where shown, significant test results were determined using T-test analysis at p < 0.01 and p < 0.05 with a two tail distribution.
(§5) Supp Figure 1. CYP1 and SULT1A1 inhibition ameliorates the effect of 3 and 5. Growth inhibition (72 h, MTT assay) of 3 and 5 (0.1 µM) in the presence of the CYP1 family inhibitor, α-naphthoflavone (αNF, 10 µM) and SULT1A1 inhibitor, quercetin (qu, 5 µM) in (A) MDA-MB-468 breast cancer cells and (B) MCF10A normal breast cells. Significant differences are at the P < 0.01 ** level, using a paired T-test with a two-tailed distribution.

[7] = tested on: MDA-MB-468 breast cancer cells; experiment: MTT growth inhibition with co-administered CYP1 (αNF) or SULT1A1 (quercetin) inhibitor; type: cell-based, human; conditions: for fold reduction of growth inhibition (GI50 shift): MDA-MB-468
Method: as §3
FIGURE 5 CYP1 and SULT1A1 inhibition ameliorates the effect of 5. Growth inhibition (72 h, MTT assay) of 5 in the presence of the (A) CYP1 family inhibitor, α-naphthoflavone (αNF, 10 μM) and (B) SULT1A1 inhibitor, quercetin (5 μM), in MDA-MB-468 breast cancer cells. […] The effect of αNF and quercetin at the single concentration of 10µM and 5 µM respectively is shown in red as a single value.
as §4
as §5, with “Significant differences are at the P < 0.01 ** level, using a paired T-test with a two-tailed distribution.” left out

In the case of `Nc1ccccc1N1C(=O)c2cccc3cccc(c23)C1=O` [Compound 2, 2-(2-aminophenyl)-1H-benzo[de]isoquinoline-1,3(2H)-dione], the GI50 (T47D breast cancer cells) is listed as 180 ± 20 nM, the GI50 [1] is listed as 430 ± 70 nM and the GI50 (A2780 (ovary) cells) is listed as 21000 ± 4000 nM. The GI50 (Du145 (prostate) cells) was > 50000 nM, the GI50 [2] was 250 ± 120 nM and the GI50 [3] was 220 ± 20 nM. For the same compound, the GI50 (H460 (lung, ER+) cells) was 15000 ± 7500 nM, the GI50 ([4]; A431, MCF-7, T47D, ZR-75-1, SKBR3, MDA-MB-468, BT474, ref Gilbert et al., 2020, read-out: GI50 (range over cell lines)) was 100 to 700 nM and the “selective targeting of certain breast cancer cell lines compared with normal breast cells or other tumour types (fold)” value ([4]; ref Gilbert et al., 2017, Gilbert et al., 2020) was “more than 500 fold”. For the same compound, the GI50 [5] was 700 ± 120 nM and the GI50 (BE2-C (neuronal) cells) was > 50000 nM.
For `O=c1c2cccc3cccc(c32)c2nc3ccc(Cl)cc3n12` [Compound 3, 10-Chloro-7H-benzo[de]benzo[4,5]imidazo[2,1-a]isoquinolin-7-one], the “CYP1A1 Fold change (mRNA vs DMSO control)” value (“CYP1A1 Fold change” below) (CYP1A1 mRNA; 0.2 μM) was 18 fold, the “CYP1A1 Fold change” value (CYP1A1 mRNA; 1.0 μM) was 20 fold and the “effect on expression of AhR” value (AhR mRNA) was “not significantly altered”. For the same compound, the “CYP1B1 Fold change (mRNA vs DMSO control)” value (CYP1B1 mRNA) was 3.7 fold, the “effect on growth in normal MCF10A cells” value [6] was “Neither 3, 5, αNF, or quercetin affected growth” and the “selective in targeting certain breast cancer cell lines compared with normal cells or other tumour types (fold)” value ([4]; ref Baker et al., 2021a, Elson et al., 2023) was “up to 150 fold”.
For `O=c1c2cccc3cccc(c32)c2nc3ccccc3n12` [Compound 5, 7H-Benzo[de]benzo[4,5]imidazo[2,1-a]isoquinolin-7-one], the “CYP1A1 Fold change” value (CYP1A1 mRNA; 0.02 μM) was 12 fold, the “CYP1A1 Fold change” value (CYP1A1 mRNA; 1.0 μM) was 15 fold and the “effect on expression of AhR” value (AhR mRNA) was “not significantly altered”. The “CYP1B1 Fold change (mRNA vs DMSO control)” value (CYP1B1 mRNA) was 4.6 fold, the “effect on growth in normal MCF10A cells” value [6] was “Neither 3, 5, αNF, or quercetin affected growth” and the GI50 ([7]; Homo sapiens, compound alone (no inhibitor), MDA-MB-468, MTT, 72 h) was 5 nM. For the same compound, the “fold reduction of growth inhibition (GI50 shift)” value ([7]; with quercetin 5 μM vs alone) was 4.6 fold and the “fold reduction of growth inhibition (GI50 shift)” value ([7]; with α-naphthoflavone 10 μM vs alone) was 36 fold.
